Source: patent US20260151375A1, “CDK2 INHIBITORS AND METHODS OF USING THE SAME” (Cedilla Therapeutics, Inc., priority 2022, published 2026)
Read-outs that look alike come from different tables or passages of the source.

Key:
CDK2/Cyclin E1 [1] = target: T1, CDK2/Cyclin E1 (Homo sapiens, UniProt P24941); test: ADPGLO (CDK2/E1-37 C), ADP-Glo Luminescent Kinase Assay; type: biochemical; details: 0.18 nM CDK2/Cyclin E1, 100 μM ATP, Histone H1, 37° C.
T1 construct: purchased 14-475
Method: Inhibition of CDK2/Cyclin E1 activity by the presence of small molecules was evaluated using ADP-Glo Luminescent Kinase Assay (Promega). Activated CDK2/Cyclin E1 was incubated with its substrate Histone H1 (SignalChem H10-54N) in the kinase reaction buffer (100 μM ATP, 50 mM HEPES pH 7.5, 10 mM MgCl2, 1 mM EDTA, 2 mM DTT, 0.01% Brij35, 0.5 mg/mL BSA). Luminescence was recorded with an Envision plate reader (PerkinElmer).
Dose titrations of inhibitors in 100% DMSO were combined with 0.36 nM CDK2/Cyclin E1 in reaction buffer. The mixtures were incubated for 60 minutes at 37° C. before the addition of ATP and Histone H1 substrate to initiate the kinase reaction. The final conditions were 0.18 nM CDK2/Cyclin E1, 100 μM ATP, and 1.5 μM Histone H1. The reactions were incubated at 37° C. for 90 minutes before being stopped with the addition of ADP-Glo reagent. This mixture was incubated at room temperature for 60 minutes before Kinase Detection Solution is added to generate luminescence. The stopped reactions were analyzed on an Envision plate reader. The conversion ratios were normalized to yield % activity, plotted against compound concentration, and fit to a four-parameter equation to determine the IC50 for each compound.

Kuramochi cells = test: IncuCyte Kuramochi Assay (cell proliferation); type: cell-based; details: Kuramochi cells labeled with mApple-H2B, cell count, read-out: IncuCyte - Kuramochi RB-WT: IC50
Summary of the method: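 Cells imaged at 0 and 72 h after compound treatment (10 points, ½ log dilution, 20 μM top), with fluorescent nuclei counted. Fold change in count was normalized to DMSO wells and fitted to dose-response curves to give GI50.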

CDK2/Cyclin E1 [2] = target: T1, CDK2/Cyclin E1; test: Caliper Assay (LabChip EZ Reader mobility shift assay), inhibition of CDK2/Cyclin E1 activity; type: biochemical; details: 2.5 nM CDK2/Cyclin E1(14-475), 100 μM ATP, 30 min preincubation; read-out: Caliper Assay (CDK2/CCNE1): IC50
Summary of the method: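 Compounds were preincubated 30 min with CDK2/Cyclin E1(14-475), then run for 100 min with 2.5 nM enzyme, 100 μM ATP and 1.5 μM 5-FAM-QSPKKG peptide in HEPES pH 7.5 (final). Reactions were EDTA-stopped and substrate-to-product conversion read by mobility shift. IC50 came from a four-parameter fit.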

Row | SMILES | IC50 (CDK2/Cyclin E1 [1]) | IC50 (CDK2/Cyclin E1 [2]) | IC50 (Kuramochi cells; 72 h) | IC50 (Kuramochi cells; 72 hours)
1 | O=C(c1cnn(Cc2cccc3c2CCNC3)c1)N1CC(c2nnc(C(F)(F)c3ccc(Cl)c(Cl)c3)o2)C2(C1)CN(C(=O)C1(C(F)(F)F)CC1)C2 (centres unmarked) [I-106] | > 10 µM | – | 5 to 10 µM | –
2 | O=C(c1cncc(O)n1)N1CC(c2nnc(C(F)(F)c3ccc(Cl)c(Cl)c3)o2)C2(C1)CN(C(=O)[C@H]1CC1(F)F)C2 (stereo partly drawn) [I-112, (8-(5-((3,4-dichlorophenyl)difluoromethyl)-1,3,4-oxadiazol-2-yl)-2-((R)-2,2-difluorocyclopropane-1-carbonyl)-2,6-diazaspiro[3.4]octan-6-yl)(6-hydroxypyrazin-2-yl)methanone] | > 10 µM | – | > 10 µM | –
3 | CC(c1nc(C2CN(C(=O)c3cnn(Cc4nnn[nH]4)c3)CC23CN(C(=O)[C@H]2CC2(C)C)C3)no1)n1ccc(C2CCCC2)n1 (stereo partly drawn) [I-114, (1-((1H-tetrazol-5-yl)methyl)-1H-pyrazol-4-yl)(8-(5-(1-(3-cyclopentyl-1H-pyrazol-1-yl)ethyl)-1,2,4-oxadiazol-3-yl)-2-((S)-2,2-dimethylcyclopropane-1-carbonyl)-2,6-diazaspiro[3.4]octan-6-yl)methanone] | 0.5 to 5 µM | – | – | > 10 µM
4 | CC(c1nc(C2CN(C(=O)c3cnc(O)cn3)CC23CN(C(=O)[C@H]2CC2(F)F)C3)no1)n1ccc(C2CCOCC2)n1 (stereo partly drawn) [I-116, (2-((R)-2,2-difluorocyclopropane-1-carbonyl)-8-(5-(1-(3-(tetrahydro-2H-pyran-4-yl)-1H-pyrazol-1-yl)ethyl)-1,2,4-oxadiazol-3-yl)-2,6-diazaspiro[3.4]octan-6-yl)(5-hydroxypyrazin-2-yl)methanone] | > 10 µM | – | > 10 µM | –
5 | O=C(c1cc(O)n[nH]1)N1CC(c2nnc(C(F)(F)c3ccc(Cl)c(Cl)c3)o2)C2(C1)CN(C(=O)[C@H]1CC1(F)F)C2 (stereo partly drawn) [I-120, (8-(5-((3,4-dichlorophenyl)difluoromethyl)-1,3,4-oxadiazol-2-yl)-2-((R)-2,2-difluorocyclopropane-1-carbonyl)-2,6-diazaspiro[3.4]octan-6-yl)(3-hydroxy-1H-pyrazol-5-yl)methanone] | > 10 µM | – | > 10 µM | –
6 | CC(c1nc(C2CN(C(=O)c3cnn(Cc4ccc(C(=O)O)c(O)c4)c3)CC23CN(C(=O)[C@H]2CC2(C)C)C3)no1)n1ccc(C2CCCC2)n1 (stereo partly drawn) [I-122, 4-((4-(8-(5-(1-(3-cyclopentyl-1H-pyrazol-1-yl)ethyl)-1,2,4-oxadiazol-3-yl)-2-((S)-2,2-dimethylcyclopropane-1-carbonyl)-2,6-diazaspiro[3.4]octane-6-carbonyl)-1H-pyrazol-1-yl)methyl)-2-hydroxybenzoic acid] | 5 to 10 µM | – | > 10 µM | –
7 | CC1(C)C[C@@H]1C(=O)N1CC2(CN(C(=O)c3cncs3)CC2c2ncc(Cc3ccc(C(F)(F)F)c(Cl)c3)o2)C1 (stereo partly drawn) [I-201, (8-(5-(3-chloro-4-(trifluoromethyl)benzyl)oxazol-2-yl)-2-((S)-2,2-dimethylcyclopropane-1-carbonyl)-2,6-diazaspiro[3.4]octan-6-yl)(thiazol-5-yl)methanone] | – | 0.1 to 1 µM | 5 to 10 µM | –
8 | CC1(C)C[C@@H]1C(=O)N1CC2(CN(C(=O)c3cncs3)CC2c2cn(Cc3ccc(C(F)(F)F)cc3)nn2)C1 (some centres unmarked) [I-202] | – | > 10 µM | > 10 µM | –
9 | O=C(CC(F)(F)F)N1CC(c2nnc(C(F)(F)c3ccc(Cl)c(Cl)c3)o2)C2(C1)CN(C(=O)CC(F)(F)F)C2 (centres unmarked) [I-203] | – | > 10 µM | > 10 µM | –
10 | CC(=O)N1CC(c2nnc(C(F)(F)c3ccc(Cl)c(Cl)c3)o2)C2(C1)CN(C(C)=O)C2 (centres unmarked) [I-204] | – | > 10 µM | > 10 µM | –
11 | O=C(N1CC(c2nnc(C(F)(F)c3ccc(Cl)c(Cl)c3)o2)C2(C1)CN(C(=O)C(F)(F)F)C2)C(F)(F)F (centres unmarked) [I-205, 1,1′-(8-(5-((3,4-dichlorophenyl)difluoromethyl)-1,3,4-oxadiazol-2-yl)-2,6-diazaspiro[3.4]octane-2,6-diyl)bis(2,2,2-trifluoroethan-1-one)] | – | > 10 µM | 5 to 10 µM | –
12 | CC(c1nc(C2CN(C(=O)c3cnn(Cc4ccc(C#N)cc4)c3)CC23CN(C(=O)C2(C(F)(F)F)CC2)C3)no1)n1ccc(C(F)(F)F)n1 (centres unmarked) [I-207] | > 10 µM | – | > 10 µM | –
13 | C=CC(=O)N(C)c1cccc(Cc2ccc(Cn3cc(C(=O)N4CC(c5nnc(C(F)(F)c6ccc(Cl)c(Cl)c6)o5)C5(C4)CN(C(=O)C4(C(F)(F)F)CC4)C5)cn3)cc2)c1 (centres unmarked) [I-208] | > 10 µM | – | > 10 µM | –
14 | O=C(c1cnc(O)cn1)N1CC(c2nnc(C(C(=O)N3CCC(c4nccs4)CC3)c3ccc(C4CCOCC4)cc3)o2)C2(C1)CN(C(=O)C1(C(F)(F)F)CC1)C2 (centres unmarked) [I-209] | > 10 µM | – | ≤ 0.5 µM | –

More lines, main results first:

Row | IC50 (CDK2/Cyclin E1 [1]) | IC50 (CDK2/Cyclin E1 [2]) | SMILES | IC50 (Kuramochi cells; 72 h) | IC50 (Kuramochi cells; 72 hours)
15 | ≤ 0.5 µM | – | O=C(c1cnc(O)cn1)N1CC(c2nnc(C(COCc3ccccc3)c3cccc(C4CCCCC4)c3)o2)C2(C1)CN(C(=O)C1(C(F)(F)F)CC1)C2 (centres unmarked) [I-107, (8-(5-(2-(benzyloxy)-1-(3-cyclohexylphenyl)ethyl)-1,3,4-oxadiazol-2-yl)-2-(1-(trifluoromethyl)cyclopropane-1-carbonyl)-2,6-diazaspiro[3.4]octan-6-yl)(5-hydroxypyrazin-2-yl)methanone] | 0.5 to 5 µM | –
16 | 0.5 to 5 µM | – | O=C(c1cnn(Cc2cccc3[nH]cnc23)c1)N1CC(c2nnc(C(F)(F)c3ccc(Cl)c(Cl)c3)o2)C2(C1)CN(C(=O)C1(C(F)(F)F)CC1)C2 (centres unmarked) [I-108, (1-((1H-benzo[d]imidazol-4-yl)methyl)-1H-pyrazol-4-yl)(8-(5-((3,4-dichlorophenyl)difluoromethyl)-1,3,4-oxadiazol-2-yl)-2-(1-(trifluoromethyl)cyclopropane-1-carbonyl)-2,6-diazaspiro[3.4]octan-6-yl)methanone] | 5 to 10 µM | –
17 | 5 to 10 µM | – | CC(c1nc(C2CN(C(=O)c3cnn(CC(=O)O)c3)CC23CN(C(=O)[C@H]2CC2(C)C)C3)no1)n1ccc(C2CCCC2)n1 (stereo partly drawn) [I-110, 2-(4-(8-(5-(1-(3-cyclopentyl-1H-pyrazol-1-yl)ethyl)-1,2,4-oxadiazol-3-yl)-2-((S)-2,2-dimethylcyclopropane-1-carbonyl)-2,6-diazaspiro[3.4]octane-6-carbonyl)-1H-pyrazol-1-yl)acetic acid] | > 10 µM | –
18 | 0.5 to 5 µM | – | CC(c1nc(C2CN(C(=O)c3cnn(Cc4nnnn4C)c3)CC23CN(C(=O)[C@H]2CC2(C)C)C3)no1)n1ccc(C2CCCC2)n1 (stereo partly drawn) [I-111, (8-(5-(1-(3-cyclopentyl-1H-pyrazol-1-yl)ethyl)-1,2,4-oxadiazol-3-yl)-2-((S)-2,2-dimethylcyclopropane-1-carbonyl)-2,6-diazaspiro[3.4]octan-6-yl)(1-((1-methyl-1H-tetrazol-5-yl)methyl)-1H-pyrazol-4-yl)methanone] | 5 to 10 µM | –
19 | 0.5 to 5 µM | – | CC(c1nc(C2CN(C(=O)c3cnn(Cc4ccc(C(O)C(F)(F)F)cc4)c3)CC23CN(C(=O)[C@H]2CC2(C)C)C3)no1)n1ccc(C2CCCC2)n1 (some centres unmarked) [I-113] | 0.5 to 5 µM | –
20 | 0.5 to 5 µM | – | CC(c1nc(C2CN(C(=O)c3cnc(O)cn3)CC23CN(C(=O)C2(C(F)(F)F)CC2)C3)no1)n1ccc(C2CCOCC2)n1 (centres unmarked) [I-115] | 5 to 10 µM | –
21 | 0.5 to 5 µM | – | COC(=O)c1ccc(Cn2cc(C(=O)N3CC(c4noc(C(C)n5ccc(C6CCCC6)n5)n4)C4(C3)CN(C(=O)[C@H]3CC3(C)C)C4)cn2)cn1 (some centres unmarked) [I-117] | > 10 µM | –
22 | 0.5 to 5 µM | – | CC(c1nc(C2CN(C(=O)c3cnn(CC#N)c3)CC23CN(C(=O)[C@H]2CC2(C)C)C3)no1)n1ccc(C2CCCC2)n1 (stereo partly drawn) [I-119, 2-(4-(8-(5-(1-(3-cyclopentyl-1H-pyrazol-1-yl)ethyl)-1,2,4-oxadiazol-3-yl)-2-((S)-2,2-dimethylcyclopropane-1-carbonyl)-2,6-diazaspiro[3.4]octane-6-carbonyl)-1H-pyrazol-1-yl)acetonitrile] | > 10 µM | –
23 | 0.5 to 5 µM | – | CC(c1nc(C2CN(C(=O)c3cnn(Cc4ccc(-c5nnn[nH]5)cc4)c3)CC23CN(C(=O)[C@H]2CC2(C)C)C3)no1)n1ccc(C2CCCC2)n1 (stereo partly drawn) [I-121, (1-(4-(1H-tetrazol-5-yl)benzyl)-1H-pyrazol-4-yl)(8-(5-(1-(3-cyclopentyl-1H-pyrazol-1-yl)ethyl)-1,2,4-oxadiazol-3-yl)-2-((S)-2,2-dimethylcyclopropane-1-carbonyl)-2,6-diazaspiro[3.4]octan-6-yl)methanone] | > 10 µM | –
24 | ≤ 0.5 µM | – | CC(c1nc(C2CN(C(=O)c3cnn(Cc4ccccc4C(=O)O)c3)CC23CN(C(=O)[C@H]2CC2(C)C)C3)no1)n1ccc(C2CCCC2)n1 (some centres unmarked) [I-123] | > 10 µM | –
25 | 0.5 to 5 µM | – | CC(c1nc(C2CN(C(=O)c3cnn(Cc4ccc(OC(C)(C)C(=O)O)cc4)c3)CC23CN(C(=O)[C@H]2CC2(C)C)C3)no1)n1ccc(C2CCCC2)n1 (some centres unmarked) [I-124] | > 10 µM | –
